Results published in US9357778B2, “N-acyl-2-(cyclo)alkypyrrolidines and piperidines useful as fungicides” (BAYER CROPSCIENCE AG, priority 2012, dated 2016).
Marks after values point to notes of the source that are not given here.

Legend:
Alternaria solani = assay: In vivo preventive test on Alternaria solani (tomato); conditions: evaluated 7 days after inoculation
Experimental: In Vivo Preventive Test on Alternaria solani (Tomato) • Solvent: 49 parts by weight of N,N-dimethylformamide • Emulsifier: 1 part by weight of alkylarylpolyglycolether To produce a suitable preparation of active compound, 1 part by weight of active compound is mixed with the stated amounts of solvent and emulsifier, and the concentrate is diluted with water to the desired concentration. To test for preventive activity, young plants are sprayed with the preparation of active compound at the stated rate of application. One day after this treatment, the plants are inoculated with an aqueous spore suspension of Alternaria solani. The plants remain for one day in an incubation cabinet at approximately 22° C. and a relative atmospheric humidity of 100%. Then the plants are placed in an incubation cabinet at approximately 20° C. and a relative atmospheric humidity of 96%. The test is evaluated 7 days after the inoculation. 0% means an efficacy which corresponds to that of the untreated control while an efficacy of 100% means that no disease is observed.

Pyrenophora teres = assay: In vivo preventive test on Pyrenophora teres (barley); conditions: 500 ppm of active ingredient, evaluated 7-9 days after inoculation
Experimental: In Vivo Preventive Test on Pyrenophora teres (Barley) • Solvent: 49 parts by weight of N,N-dimethylformamide • Emulsifier: 1 part by weight of alkylaryl polyglycol ether To produce a suitable preparation of active compound, 1 part by weight of active compound is mixed with the stated amounts of solvent and emulsifier, and the concentrate is diluted with water to the desired concentration. To test for preventive activity, young plants are sprayed with the preparation of active compound at the stated rate of application. One day after this treatment, the plants are inoculated with an aqueous spore suspension of Pyrenophora teres. The plants remain for 48 hours in an incubation cabinet at 22° C. and a relative atmospheric humidity of 100%. Then the plants are placed in a greenhouse at a temperature of approximately 20° C. and a relative atmospheric humidity of approximately 80%. The test is evaluated 7-9 days after the inoculation. 0% means an efficacy which corresponds to that of the untreated control while an efficacy of 100% means that no disease is observed.

Sphaerotheca fuliginea = assay: In vivo preventive test on Sphaerotheca fuliginea (cucumber); conditions: 500 ppm of active ingredient, evaluated 7 days after inoculation
Experimental: In Vivo Preventive Test on Sphaerotheca Fulicinea (Cucumber) • Solvent: 49 parts by weight of N,N-dimethylformamide • Emulsifier: 1 part by weight of alkylarylpolyglycolether To produce a suitable preparation of active compound, 1 part by weight of active compound is mixed with the stated amounts of solvent and emulsifier, and the concentrate is diluted with water to the desired concentration. To test for preventive activity, young plants are sprayed with the preparation of active compound at the stated rate of application. One day after this treatment, the plants are inoculated with an aqueous spore suspension of Sphaerotheca fuliginea. Then the plants are placed in a greenhouse at approximately 23° C. and a relative atmospheric humidity of approximately 70%. The test is evaluated 7 days after the inoculation. 0% means an efficacy which corresponds to that of the untreated control, while an efficacy of 100% means that no disease is observed.

Leptosphaeria nodorum = assay: In vivo preventive test on Leptosphaeria nodorum (wheat); conditions: evaluated 8 days after inoculation
Experimental: In Vivo Preventive Test on Leptosphaeria nodorum (Wheat) • Solvent: 49 parts by weight of N,N-dimethylacetamide • Emulsifier: 1 part by weight of alkylaryl polyglycol ether To produce a suitable preparation of active compound, 1 part by weight of active compound or active compound combination is mixed with the stated amounts of solvent and emulsifier, and the concentrate is diluted with water to the desired concentration. To test for preventive activity, young plants are sprayed with the preparation of active compound or active compound combination at the stated rate of application. After the spray coating has been dried, the plants are sprayed with a spore suspension of Leptosphaeria nodorum. The plants remain for 48 hours in an incubation cabinet at approximately 20° C. and a relative atmospheric humidity of approximately 100%. The plants are placed in the greenhouse at a temperature of approximately 22° C. and a relative atmospheric humidity of approximately 80%. The test is evaluated 8 days after the inoculation. 0% means an efficacy which corresponds to that of the untreated control, while an efficacy of 100% means that no disease is observed.

[1] = log P by HPLC on reversed-phase column (C 18), EEC Directive 79/831 Annex V.A8; assay type: physicochemical; conditions: 40° C., 0.1% aqueous formic acid and acetonitrile
Experimental: In table 1, the log P values were determined in accordance with EEC Directive 79/831 Annex V.A8 by HPLC (High Performance Liquid Chromatography) on a reversed-phase column (C 18), using the method described below: Temperature: 40° C.; Mobile phases: 0.1% aqueous formic acid and acetonitrile; linear gradient from 10% acetonitrile to 90% acetonitrile. Calibration was carried out using unbranched alkan-2-ones (comprising 3 to 16 carbon atoms) with known log P values (determination of the log P values by the retention times using linear interpolation between two successive alkanones). lambda-max-values were determined using UV-spectra from 200 nm to 400 nm and the peak values of the chromatographic signals.

Tomato = assay: Plant damages observed in the Alternaria solani preventive test (tomato); assay type: in vivo; conditions: footnote to table B2
Experimental: In Vivo Preventive Test on Alternaria solani (Tomato) To test for preventive activity, young plants are sprayed with the preparation of active compound at the stated rate of application. One day after this treatment, the plants are inoculated with an aqueous spore suspension of Alternaria solani. The plants remain for one day in an incubation cabinet at approximately 22° C. and a relative atmospheric humidity of 100%. Then the plants are placed in an incubation cabinet at approximately 20° C. and a relative atmospheric humidity of 96%. Under the same conditions, high (at least 85%) to total protection is observed at a dose of 500 and 100 ppm of active ingredient with compound of example 12, 20 and 25, whereas poor (less than 20%) protection to 100% of plant damages is observed with compound 1.006, compound CMP1 (chloro analogue of compound 1.006) and compound CMP2 (fluoro analogue of compound 1.006) claimed in patent application WO-2009/153191 as in table B2: […]

| Compound | logP [1] | Efficacy (Alternaria solani; 500 ppm of active ingredient) [%] | Efficacy (Pyrenophora teres) [%] | Efficacy (Sphaerotheca fuliginea) [%] | Efficacy (Leptosphaeria nodorum; 100 ppm of active ingredient) [%] | Efficacy (Leptosphaeria nodorum; 500 ppm of active ingredient) [%] | Efficacy (Alternaria solani; 100 ppm of active ingredient) | plant damages (Tomato; 500 ppm) | plant damages (Tomato; 100 ppm) |
| --- | --- | --- | --- | --- | --- | --- | --- | --- | --- |
| Cn1cc(C(=O)N2CCC[C@H]2COc2c(Cl)cc(Cl)cc2Cl)c(C(F)F)n1 [Compound 1.006, [3-(difluoromethyl)-1-methyl-1H-pyrazol-4-yl]{(2S)-2-[(2,4,6-trichlorophenoxy)methyl]pyrrolidin-1-yl}methanone, reference compound] |  |  |  |  | 40 | 60 | 20 ^(b) % | ^(a)together with 100% of plant damages |  |
| Cn1cc(C(=O)N2CCCC2CC2CC3CCC2C3)c(C(F)F)n1 (stereo not shown) [Example 49] | 3.44 | 94 | 100 | 90 |  | 70 |  |  |  |
| Cn1nc(C(F)F)c(C(=O)N2CCC[C@H]2COc2c(Cl)cc(Cl)cc2Cl)c1Cl [CMP1, [5-chloro-3-(difluoromethyl)-1-methyl-1H-pyrazol-4-yl]{(2S)-2-[(2,4,6-trichlorophenoxy)methyl]pyrrolidin-1-yl}methanone, reference compound] |  |  |  |  | 0 | 0 |  | ^(a)together with 100% of plant damages | ^(a)together with 100% of plant damages |
| Cn1nc(C(F)F)c(C(=O)N2CCC[C@H]2COc2c(Cl)cc(Cl)cc2Cl)c1F [CMP2, [3-(difluoromethyl)-5-fluoro-1-methyl-1H-pyrazol-4-yl]{(2S)-2-[(2,4,6-trichlorophenoxy)methyl]pyrrolidin-1-yl}methanone] |  |  |  |  |  |  |  | ^(a)together with 100% of plant damages | ^(a)together with 100% of plant damages |

Now from value to compound, other results behind:

| logP [1] | Compound | Efficacy (Alternaria solani; 500 ppm of active ingredient) [%] | Efficacy (Pyrenophora teres) [%] | Efficacy (Sphaerotheca fuliginea) [%] | Efficacy (Leptosphaeria nodorum; 100 ppm of active ingredient) [%] | Efficacy (Leptosphaeria nodorum; 500 ppm of active ingredient) [%] | Efficacy (Alternaria solani; 100 ppm of active ingredient) | plant damages (Tomato; 500 ppm) | plant damages (Tomato; 100 ppm) |
| --- | --- | --- | --- | --- | --- | --- | --- | --- | --- |
| 3.31 | Cn1nc(C(F)F)c(C(=O)N2CCCC2C2CCCCC2)c1F (stereo not shown) [Example 11] | 94 | 100 | 95 | 80 | 95 |  |  |  |
| 3.80 | CCCCCCC1CCCN1C(=O)c1c(C(F)F)nn(C)c1F (stereo not shown) [Example 8] |  | 100 | 98 | 90 | 95 |  |  |  |
| 3.78 | Cn1nc(C(F)F)c(C(=O)N2CCCC2CC2CCCCC2)c1F (stereo not shown) [Example 17] | 94 | 100 | 100 | 80 | 95 |  |  |  |
| 3.89 | Cn1nc(C(F)F)c(C(=O)N2CCCC2CC2CC3CCC2C3)c1F (stereo not shown) [Example 48] | 100 | 100 | 100 |  | 90 |  |  |  |
